# Laboratory results published in patent US20260256792A1, “TREATMENT OF CHRONIC SPONTANEOUS URTICARIA BY ADMINISTERING (R)-2-[3-[4-AMINO-3-(2-FLUORO-4-PHENOXY-PHENYL)PYRAZOLO[3,4-D]PYRIMIDIN-1-YL]PIPERIDINE-1-CARBONYL]-4-METHYL-4-[4-(OXETAN-3-YL)PIPERAZIN-1-YL]PENT-2-ENENITRILE” (priority 2023, published 2026).
# Tested on: moderate-to-severe chronic spontaneous urticaria (CSU)
# Experiment: Phase 2 CSU study: urticaria activity score over 7 days (UAS7)
# Format: in vivo, human
# Conditions: Omalizumab-naïve, 400 mg TID
# Text: The study comprises a 12 week, randomized, double-blind, placebo-controlled, multi-center, dose-ranging efficacy and safety phase, followed by a 40 week open label extension (OLE) phase (see FIG. 1). The study consists of three phases and an optional OLE phase. […] Clinically, CSU is characterized by the spontaneous and recurrent appearance of pruritic hives. The proposed primary endpoints were the UAS7 at Week 12 in EU and EU reference countries and the ISS7 in the US. Regardless of where a participant was from, all assessments were the same. The UAS7 score is a composite score containing both the HSS7 and the ISS7. This allowed a global assessment of the two key components of urticaria: hives and itch. […] The UAS is a validated PRO measure. […] The daily UAS scores range from 0 to 6 point/day. […] Patients were to complete the UAS using the e-diary. […] The following secondary endpoints were to be analyzed using the same approach as for the primary endpoint: • Change from baseline in UAS7 at Week 4 • Change from baseline in UAS7 at Week 12 (for US and US reference countries) • Change from baseline in ISS7 at Week 12 (except US and US reference countries) • Change from baseline in HSS7 at Week 12 The following responder secondary endpoints were to be analyzed using the Cochran-Mantel-Haenszel test adjusted by region: • Proportion of participants with UAS7<6 at Week 12 • Proportion of participants with UAS7=0 at Week 12 Participants who received selected prohibited medications and/or rescue medications were to be considered as non-responders for time points after the medication usage. For other participants, all available data including those collected during the off-treatment period were to be used to determine the responder/non-responder status. Missing data were to be considered as non-responders.
compound,measurement,setting,value
"CC(C)(C=C(C#N)C(=O)N1CCC[C@@H](n2nc(-c3ccc(Oc4ccccc4)cc3F)c3c(N)ncnc32)C1)N1CCN(C2COC2)CC1 [rilzabrutinib, (R)-2-[3-[4-amino-3-(2-fluoro-4-phenoxy-phenyl)pyrazolo[3,4-d]pyrimidin-1-yl]piperidine-1-carbonyl]-4-methyl-4-[4-(oxetan-3-yl)piperazin-1-yl]pent-2-enenitrile]","Imputed non-responder n (%), UAS7 = 0",Week 3,0 n (%)
same,"Imputed non-responder n (%), UAS7 ≤6",Week 3,0 n (%)
same,"Non-responder n (%), UAS7 = 0",Week 3,32 (91.4) n (%)
same,"Non-responder n (%), UAS7 ≤6",Week 3,27 (77.1) n (%)
same,"OR for rilzabrutinib vs. placebo, UAS7 = 0",Week 3,3.625
same,"OR for rilzabrutinib vs. placebo, UAS7 ≤6",Week 3,3.239
same,"RRD (%) for rilzabrutinib vs. placebo, UAS7 = 0",Week 3,5.8 %
same,"RRD (%) for rilzabrutinib vs. placebo, UAS7 ≤6",Week 3,13.6 %
same,"Responder n (%), UAS7 = 0",Week 3,3 (8.6) n (%)
same,"Responder n (%), UAS7 ≤6",Week 3,8 (22.9) n (%)
same,"Imputed non-responder n (%), UAS7 = 0",Week 4,3 (8.6) n (%)
same,"Imputed non-responder n (%), UAS7 ≤6",Week 4,3 (8.6) n (%)
same,"Non-responder n (%), UAS7 = 0",Week 4,32 (91.4) n (%)
same,"Non-responder n (%), UAS7 ≤6",Week 4,30 (85.7) n (%)
same,"OR for rilzabrutinib vs. placebo, UAS7 = 0",Week 4,1.460
same,"OR for rilzabrutinib vs. placebo, UAS7 ≤6",Week 4,1.185
same,"RRD (%) for rilzabrutinib vs. placebo, UAS7 = 0",Week 4,2.5 %
same,"RRD (%) for rilzabrutinib vs. placebo, UAS7 ≤6",Week 4,1.8 %
same,"Responder n (%), UAS7 = 0",Week 4,3 (8.6) n (%)
same,"Responder n (%), UAS7 ≤6",Week 4,5 (14.3) n (%)
same,"Imputed non-responder n (%), UAS7 = 0",Week 5,2 (5.7) n (%)
same,"Imputed non-responder n (%), UAS7 ≤6",Week 5,2 (5.7) n (%)
same,"Non-responder n (%), UAS7 = 0",Week 5,29 (82.9) n (%)
same,"Non-responder n (%), UAS7 ≤6",Week 5,25 (71.4) n (%)
same,"OR for rilzabrutinib vs. placebo, UAS7 = 0",Week 5,6.971
same,"OR for rilzabrutinib vs. placebo, UAS7 ≤6",Week 5,5.923
same,"RRD (%) for rilzabrutinib vs. placebo, UAS7 = 0",Week 5,13.2 %
same,"RRD (%) for rilzabrutinib vs. placebo, UAS7 ≤6",Week 5,19.7 %
same,"Responder n (%), UAS7 = 0",Week 5,6 (17.1) n (%)
same,"Responder n (%), UAS7 ≤6",Week 5,10 (28.6) n (%)
same,"Imputed non-responder n (%), UAS7 = 0",Week 6,4 (11.4) n (%)
same,"Imputed non-responder n (%), UAS7 ≤6",Week 6,4 (11.4) n (%)
same,"Non-responder n (%), UAS7 = 0",Week 6,28 (80.0) n (%)
same,"Non-responder n (%), UAS7 ≤6",Week 6,27 (77.1) n (%)
same,"OR for rilzabrutinib vs. placebo, UAS7 = 0",Week 6,8.082
same,"OR for rilzabrutinib vs. placebo, UAS7 ≤6",Week 6,1.274
same,"RRD (%) for rilzabrutinib vs. placebo, UAS7 = 0",Week 6,15.6 %
same,"RRD (%) for rilzabrutinib vs. placebo, UAS7 ≤6",Week 6,3.7 %
same,"Responder n (%), UAS7 = 0",Week 6,7 (20.0) n (%)
same,"Responder n (%), UAS7 ≤6",Week 6,8 (22.9) n (%)
same,"Imputed non-responder n (%), UAS7 = 0",Week 7,5 (14.3) n (%)
same,"Imputed non-responder n (%), UAS7 ≤6",Week 7,5 (14.3) n (%)
same,"Non-responder n (%), UAS7 = 0",Week 7,32 (91.4) n (%)
same,"Non-responder n (%), UAS7 ≤6",Week 7,26 (74.3) n (%)
same,"OR for rilzabrutinib vs. placebo, UAS7 = 0",Week 7,3.625
same,"OR for rilzabrutinib vs. placebo, UAS7 ≤6",Week 7,2.685
same,"RRD (%) for rilzabrutinib vs. placebo, UAS7 = 0",Week 7,5.8 %
same,"RRD (%) for rilzabrutinib vs. placebo, UAS7 ≤6",Week 7,13.4 %
same,"Responder n (%), UAS7 = 0",Week 7,3 (8.6) n (%)
same,"Responder n (%), UAS7 ≤6",Week 7,9 (25.7) n (%)
same,"Imputed non-responder n (%), UAS7 = 0",Week 8,7 (20.0) n (%)
same,"Imputed non-responder n (%), UAS7 ≤6",Week 8,7 (20.0) n (%)
same,"Non-responder n (%), UAS7 = 0",Week 8,32 (91.4) n (%)
same,"Non-responder n (%), UAS7 ≤6",Week 8,26 (74.3) n (%)
same,"OR for rilzabrutinib vs. placebo, UAS7 = 0",Week 8,1.351
same,"OR for rilzabrutinib vs. placebo, UAS7 ≤6",Week 8,1.513
same,"RRD (%) for rilzabrutinib vs. placebo, UAS7 = 0",Week 8,1.9 %
same,"RRD (%) for rilzabrutinib vs. placebo, UAS7 ≤6",Week 8,6.3 %
same,"Responder n (%), UAS7 = 0",Week 8,3 (8.6) n (%)
same,"Responder n (%), UAS7 ≤6",Week 8,9 (25.7) n (%)
same,"Imputed non-responder n (%), UAS7 = 0",Week 9,6 (17.1) n (%)
same,"Imputed non-responder n (%), UAS7 ≤6",Week 9,6 (17.1) n (%)
same,"Non-responder n (%), UAS7 = 0",Week 9,32 (91.4) n (%)
same,"Non-responder n (%), UAS7 ≤6",Week 9,24 (68.6) n (%)
same,"OR for rilzabrutinib vs. placebo, UAS7 = 0",Week 9,0.893
same,"OR for rilzabrutinib vs. placebo, UAS7 ≤6",Week 9,3.358
